In patent US8461328B2, “Tricyclic heterocyclic compounds, compositions and methods of use thereof” (Genentech, Inc., priority 2010, dated 2013):

Assays:
Type in all cases: biochemical
[1] = target: T1, JAK3 (Homo sapiens, UniProt P52333); assay: JAK3 inhibition (Table 4); conditions: read-out: JAK3 Ki
T1 construct: made in house; host or cells: SF9 insect cells (baculovirus)

[2] = target: T2, JAK1 (Homo sapiens, UniProt P23458); assay: JAK1 inhibition (Table 4); conditions: read-out: JAK1 Ki
T2 construct: made in house; host or cells: SF9 insect cells (baculovirus)
T2 sequence (P23458 852-1154): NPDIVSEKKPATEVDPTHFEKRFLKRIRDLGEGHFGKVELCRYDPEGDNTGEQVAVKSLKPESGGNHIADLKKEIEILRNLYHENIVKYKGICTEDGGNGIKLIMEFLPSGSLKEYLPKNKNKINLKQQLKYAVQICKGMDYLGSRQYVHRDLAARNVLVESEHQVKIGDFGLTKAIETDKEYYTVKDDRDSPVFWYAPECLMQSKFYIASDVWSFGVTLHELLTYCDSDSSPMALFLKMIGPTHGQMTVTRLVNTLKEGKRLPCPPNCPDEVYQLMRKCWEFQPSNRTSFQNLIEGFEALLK

[3] = target: T3, TYK2 (Homo sapiens, UniProt P29597); assay: TYK2 inhibition (Table 4)
T3 construct: made in house; host or cells: SF9 insect cells (baculovirus)
T3 sequence (P29597 873-1187): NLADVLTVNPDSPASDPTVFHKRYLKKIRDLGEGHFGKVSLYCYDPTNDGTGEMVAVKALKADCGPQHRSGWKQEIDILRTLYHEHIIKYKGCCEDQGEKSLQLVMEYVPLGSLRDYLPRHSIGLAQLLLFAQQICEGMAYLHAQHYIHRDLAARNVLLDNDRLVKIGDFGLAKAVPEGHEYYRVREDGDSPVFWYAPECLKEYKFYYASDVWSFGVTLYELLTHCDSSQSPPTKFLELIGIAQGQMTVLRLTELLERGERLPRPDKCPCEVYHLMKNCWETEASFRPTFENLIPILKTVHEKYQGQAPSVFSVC

[4] = target: T4, JAK2 (Homo sapiens, UniProt O60674); assay: JAK2 inhibition (Table 4); conditions: read-out: JAK2 Ki
T4 construct: made in house; host or cells: SF9 insect cells (baculovirus)
T4 sequence (O60674 812-1132): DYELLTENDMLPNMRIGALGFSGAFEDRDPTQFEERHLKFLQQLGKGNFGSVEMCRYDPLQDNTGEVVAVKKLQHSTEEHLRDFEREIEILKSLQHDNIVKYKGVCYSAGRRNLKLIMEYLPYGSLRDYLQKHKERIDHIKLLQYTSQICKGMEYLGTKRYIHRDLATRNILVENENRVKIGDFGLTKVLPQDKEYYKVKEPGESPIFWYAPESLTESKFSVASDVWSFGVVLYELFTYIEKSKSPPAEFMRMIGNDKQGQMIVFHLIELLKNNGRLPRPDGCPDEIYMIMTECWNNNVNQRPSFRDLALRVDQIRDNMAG

T1 sequence (P52333 783-1124): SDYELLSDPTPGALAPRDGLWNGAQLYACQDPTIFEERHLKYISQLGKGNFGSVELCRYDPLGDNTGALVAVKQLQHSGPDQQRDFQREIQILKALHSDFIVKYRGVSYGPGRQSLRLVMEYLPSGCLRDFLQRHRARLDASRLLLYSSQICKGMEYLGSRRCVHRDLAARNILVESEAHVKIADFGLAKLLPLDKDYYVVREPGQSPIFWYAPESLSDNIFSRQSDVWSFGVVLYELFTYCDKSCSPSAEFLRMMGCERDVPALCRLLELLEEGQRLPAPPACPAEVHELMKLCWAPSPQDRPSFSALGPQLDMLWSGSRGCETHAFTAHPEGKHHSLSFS

CC(C)(C)OC(=O)N1CCC[C@@H](CN[C@H]2CC[C@H](n3cnc4cnc5[nH]ccc5c43)CC2)C1 [Example 566, trans (S)-3-{[4-(6H-1,3,5,6-Tetraaza-as-indacen-1-yl)-cyclohexylamino]-methyl}-piperidine-1-carboxylic acid tert-butyl ester]
Ki [1]: 498 nM | Ki [2]: 20.5 nM | Ki [3]: 260 nM | Ki [4]: 186 nM

CCC(C)S(=O)(=O)NCCc1nc2cnc3[nH]ccc3c2n1C1CCN(CCC#N)CC1 (racemic) [Example 369, Butane-2-sulfonic acid (2-{1-[1-(2-cyano-ethyl)-piperidin-4-yl]-1,6-dihydro-1,3,5,6-tetraaza-as-indacen-2-yl}-ethyl)-amide]
Ki [1]: 25.5 nM | Ki [2]: 2.74 nM | Ki [3]: 71.8 nM | Ki [4]: 14.4 nM

Cc1nc2cnc3[nH]ccc3c2n1[C@H]1CC[C@@H](NCCC#N)C1 [Example 723, 3-[(1R,3S)-3-(2-Methyl-6H-1,3,5,6-tetraaza-as-indacen-1-yl)-cyclopentylamino]-propionitrile]
Ki [1]: 4.88 nM | Ki [2]: 6.22 nM | Ki [3]: 94.6 nM | Ki [4]: 29.7 nM

FC1CNCCC1n1cnc2cnc3[nH]ccc3c21 (racemic) [Example 520, 1-(3-Fluoro-piperidin-4-yl)-1,6-dihydro-1,3,5,6-tetraaza-as-indacene]
Ki [1]: 412 nM | Ki [2]: 38.2 nM | Ki [3]: 261 nM | Ki [4]: 128 nM

CC(C)(C)OC(=O)N1CCC(C)(n2cnc3cnc4[nH]ccc4c32)CC1 [Example 132, 4-Methyl-4-(6H-1,2,3,5,6-tetraaza-as-indacen-1-yl)-piperidine-1-carboxylic acid tert-butyl ester]
Ki [1]: 1120 nM | Ki [2]: 25.4 nM | Ki [3]: 696 nM | Ki [4]: 193 nM

CCN1CC[C@@H](n2c(CCNS(=O)(=O)C3CC3)nc3cnc4[nH]ccc4c32)[C@@H](F)C1 [Example 809, Cyclopropanesulfonic acid {2-[1-((3S,4R)-1-ethyl-3-fluoro-piperidin-4-yl)-1,6-dihydro-1,3,5,6-tetraaza-as-indacen-2-yl]-ethyl}-amide]
Ki [1]: 162 nM | Ki [2]: 5.67 nM | Ki [3]: 381 nM | Ki [4]: 46.6 nM

CCN1CCC(n2c([C@@H](C)O)nc3cnc4[nH]ccc4c32)C(F)(F)C1 (single isomer, unassigned) [Example 879]
Ki [1]: 27.9 nM | Ki [2]: 3.88 nM | Ki [3]: 26.5 nM | Ki [4]: 22.2 nM

Cc1nc(CN2CCC(n3c([C@@H](C)O)nc4cnc5[nH]ccc5c43)CC2)c[nH]1 [Example 902, (R)-1-{1-[1-(2-Methyl-1H-imidazol-4-ylmethyl)-piperidin-4-yl]-1,6-dihydro-1,3,5,6-tetraaza-as-indacen-2-yl}-ethanol]
Ki [1]: 478 nM | Ki [2]: 25.5 nM | Ki [3]: 2670 nM | Ki [4]: 1230 nM

O=C(N[C@H]1CC[C@H](n2cnc3cnc4[nH]ccc4c32)CC1)N1CCOCC1 [Example 593, Trans Morpholine-4-carboxylic acid [4-(6H-1,2,3,5,6-tetraaza-as-indacen-1-yl)-cyclohexyl]-amide]
Ki [1]: 316 nM | Ki [2]: 27.1 nM | Ki [3]: 398 nM | Ki [4]: 36.5 nM

C[C@@H](O)c1nc2cnc3[nH]ccc3c2n1C1CCN(Cc2cnco2)CC1 [Example 898, (R)-1-[1-(1-Oxazol-5-ylmethyl-piperidin-4-yl)-1,6-dihydro-1,3,5,6-tetraaza-as-indacen-2-yl]-ethanol]
Ki [1]: 12.9 nM | Ki [2]: 2.09 nM | Ki [3]: 96.7 nM | Ki [4]: 54.4 nM

N#CCCn1ncc2c1CC[C@H](n1cnc3cnc4[nH]ccc4c31)C2 [Example 959, 3-[(S)-5-(6H-1,3,5,6-Tetraaza-as-indacen-1-yl)-4,5,6,7-tetrahydro-indazol-1-yl]-propionitrile]
Ki [1]: 86.5 nM | Ki [2]: 4.63 nM | Ki [3]: 38 nM | Ki [4]: 6.3 nM

OCc1nc2cnc3[nH]ccc3c2n1C1CCNCC1 [Example 236, (1-Piperidin-4-yl-1,6-dihydro-1,3,5,6-tetraaza-as-indacen-2-yl)-methanol]
Ki [1]: 128 nM | Ki [2]: 7.66 nM | Ki [3]: 61.5 nM | Ki [4]: 126 nM
